Laboratory results reported in publication PMC5464343 (Pharmacology Research & Perspectives, 2017).

Assays:
[1] = system: wild‐type CYP450s 1A2, 2C8, 2C9, 2C19, 2D6, 3A4, and 3A5; test: Metabolite identification, wild‐type CYP450‐overexpressing HEK293 microsomes; format: in vitro ADME, human; settings: compound presented as substrate to overexpressing CYP450 microsomes
[2] = system: UGT2B17; settings: HLM panel; ref Sun et al. 2010; cited from earlier work
[3] = system: CYP2D6*2; settings: transiently expressed CYP2D6*2, bufuralol 1′‐hydroxylation; ref Sakuyama et al. (2008); cited from earlier work
[4] = system: CYP2C8*2; set-up: method as in Kaspera et al. 2010; settings: E. coli‐expressed CYP2C8*2 vs wild‐type; M‐1 and M‐23 formation; ref Kaspera et al. 2010; cited from earlier work
[5] = system: CYP2C8*4; set-up: method as in Kaspera et al. (2010); settings: recombinant CYP2C8*4; ref Kaspera et al. (2010); cited from earlier work
[6] = target: CYP2C9 (Homo sapiens, UniProt P11712); settings: wild‐type CYP2C9*1A; V max/K M
Chain of CYP2C9 (P11712 whole entry): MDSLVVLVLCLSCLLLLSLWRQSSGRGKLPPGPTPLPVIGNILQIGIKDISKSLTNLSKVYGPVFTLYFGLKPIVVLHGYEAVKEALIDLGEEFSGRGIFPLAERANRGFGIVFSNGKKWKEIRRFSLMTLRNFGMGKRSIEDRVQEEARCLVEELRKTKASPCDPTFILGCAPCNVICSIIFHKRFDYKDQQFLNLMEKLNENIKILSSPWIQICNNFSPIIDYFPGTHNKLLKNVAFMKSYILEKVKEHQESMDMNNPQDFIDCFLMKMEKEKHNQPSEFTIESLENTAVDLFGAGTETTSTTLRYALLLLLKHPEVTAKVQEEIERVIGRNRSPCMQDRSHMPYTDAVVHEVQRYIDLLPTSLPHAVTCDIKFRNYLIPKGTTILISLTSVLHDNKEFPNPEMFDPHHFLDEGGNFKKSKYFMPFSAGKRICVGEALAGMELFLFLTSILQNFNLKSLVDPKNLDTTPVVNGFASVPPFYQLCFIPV

[7] = target: T1, CYP2C8 (Homo sapiens, UniProt P10632); settings: wild‐type CYP2C8*1A; V max/K M
T1 sequence (P10632 1-490): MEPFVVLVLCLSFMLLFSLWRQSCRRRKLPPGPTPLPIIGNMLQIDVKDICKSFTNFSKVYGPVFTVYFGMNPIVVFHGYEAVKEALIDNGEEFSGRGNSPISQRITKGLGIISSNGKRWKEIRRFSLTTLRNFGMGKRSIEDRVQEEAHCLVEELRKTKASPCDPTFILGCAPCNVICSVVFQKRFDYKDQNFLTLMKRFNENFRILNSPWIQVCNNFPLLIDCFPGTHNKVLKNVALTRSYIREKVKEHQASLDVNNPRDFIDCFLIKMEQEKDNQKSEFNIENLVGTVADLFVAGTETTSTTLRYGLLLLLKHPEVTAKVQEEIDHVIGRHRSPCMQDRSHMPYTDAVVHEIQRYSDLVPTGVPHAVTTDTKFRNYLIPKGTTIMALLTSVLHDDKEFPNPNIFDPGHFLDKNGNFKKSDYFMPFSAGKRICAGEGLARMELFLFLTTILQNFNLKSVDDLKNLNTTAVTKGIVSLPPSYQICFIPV

[8] = system: CYP2D6^Pro34Ser, Ser486Thr
[9] = system: pooled HLM; set-up: method as in Kamdem et al. 2011; settings: pooled HLM treated with ketoconazole; ref Kamdem et al. 2011; cited from earlier work
[10] = substrate: C=C1C[C@@H]2[C@H](CC[C@]3(C)C(=O)CC[C@@H]23)[C@@]2(C)C=CC(=O)C=C12; test: cells, lysate or membranes named; settings: other: CYP2C8*3; normalized to relative CYP450 content; pH 7.4; 37.0 °C

C[C@]12C=CC(=O)C=C1C(CO)=C[C@@H]1[C@@H]2CC[C@]2(C)C(=O)CC[C@@H]12 [6‐HME, 6‐hydroxymethylandrosta‐1,4,6‐triene‐3,17‐dione]
secondary metabolite formation [1]: not observed

C=C1C[C@H]2[C@@H]3CC[C@@H](O)[C@@]3(C)CC[C@@H]2[C@@]2(C)C=CC(=O)C=C12 [17α‐DHE, 17α‐hydroxy‐6‐methyleneandrosta‐1,4‐dien‐3‐one]
secondary metabolite formation [1]: not observed

C=C1C[C@H]2[C@@H]3CC[C@H](O)[C@@]3(C)CC[C@@H]2[C@@]2(C)C=CC(=O)C=C12 [17β‐DHE, 17β‐hydroxy‐6‐methyleneandrosta‐1,4‐dien‐3‐one]
secondary metabolite formation [1]: not observed
glucuronidation (V max/K M) lower in UGT2B17‐null homozygotes (*2/*2) compared to wild‐type homozygotes (*1/*1) [2]: 36 fold

CCc1cccc2cc(C(O)CNC(C)(C)C)oc12 (stereo not drawn) [bufuralol]
decrease in substrate affinity [3]: two‐fold

COCc1c(C(C)C)nc(C(C)C)c(/C=C/[C@@H](O)C[C@@H](O)CC(=O)O)c1-c1ccc(F)cc1 [cerivastatin]
increase in the sum of cerivastatin metabolite clearance [4]: 53%
increase of combined clearance of the M‐1 and M‐23 cerivastatin metabolites compared to wild‐type [5]: approximately 2.5 fold

C=C1C[C@@H]2[C@H](CC[C@]3(C)C(=O)CC[C@@H]23)[C@@]2(C)C=CC(=O)C=C12 [exemestane, 6‐methyleneandrosta‐1,4‐diene‐3,17‐dione]
CLINT [6]: 0.027 µL/min/mg
CLINT [7]: 0.194 µL/min/mg
CLINT ([8]; CYP2D6*10, V max/K M): 0.038 µL/min/mg
V max ([8]; CYP2D6*10, normalized to relative CYP450 content): 39 ± 6 pmol/min/mg
increase of the K M value for EXE substrate ([8]; CYP2D6*10 vs CYP2D6*1): 82%
decrease in clearance compared to CYP2D6*1 ([8]; human, microsomes, pH 7.4): 56%

CC(=O)N1CCN(c2ccc(OCC3COC(Cn4ccnc4)(c4ccc(Cl)cc4Cl)O3)cc2)CC1 (stereo not drawn) [ketoconazole]
effect on 6‐HME formation [9]: strongly inhibits

B1: CYP2C8^Arg139Lys, Lys399Arg (Homo sapiens; K399R/R139K) (protein)
chain: MEPFVVLVLCLSFMLLFSLWRQSCRRRKLPPGPTPLPIIGNMLQIDVKDICKSFTNFSKVYGPVFTVYFGMNPIVVFHGYEAVKEALIDNGEEFSGRGNSPISQRITKGLGIISSNGKRWKEIRRFSLTTLRNFGMGKKSIEDRVQEEAHCLVEELRKTKASPCDPTFILGCAPCNVICSVVFQKRFDYKDQNFLTLMKRFNENFRILNSPWIQVCNNFPLLIDCFPGTHNKVLKNVALTRSYIREKVKEHQASLDVNNPRDFIDCFLIKMEQEKDNQKSEFNIENLVGTVADLFVAGTETTSTTLRYGLLLLLKHPEVTAKVQEEIDHVIGRHRSPCMQDRSHMPYTDAVVHEIQRYSDLVPTGVPHAVTTDTKFRNYLIPKGTTIMALLTSVLHDDREFPNPNIFDPGHFLDKNGNFKKSDYFMPFSAGKRICAGEGLARMELFLFLTTILQNFNLKSVDDLKNLNTTAVTKGIVSLPPSYQICFIPV
Vmax [10]: 0.000144 µmol/min/mg
